# Experiment: Binary supramolecular self-assembly systems of polymer and target: guest concentration over incubation time (Comparative Example 2)
# Format: physicochemical
# Conditions: binary system with 0.5% polymer 101; incubation 0.5 h
# Procedure: Experiments were conducted according to the steps in Comparative Example 1, and quantitative analysis was carried out using the analytical method for each target to investigate the regulation ability […] stacking.
row,Concentration of the target in the solution measured after different incubation time,SMILES
1,233.6 µg/mL,"CC1(C)CCC(CN2CCN(c3ccc(C(=O)NS(=O)(=O)c4ccc(NCC5CCOCC5)c([N+](=O)[O-])c4)c(Oc4cnc5[nH]ccc5c4)c3)CC2)=C(c2ccc(Cl)cc2)C1 [Venetoclax, venetoclax]"

# Same assay, conditions: binary system with 0.5% polymer 101; incubation 3 h
row,Concentration of the target in the solution measured after different incubation time,SMILES
1,249.5 µg/mL,"CC1(C)CCC(CN2CCN(c3ccc(C(=O)NS(=O)(=O)c4ccc(NCC5CCOCC5)c([N+](=O)[O-])c4)c(Oc4cnc5[nH]ccc5c4)c3)CC2)=C(c2ccc(Cl)cc2)C1 [Venetoclax, venetoclax]"

# Same assay, conditions: binary system with 0.5% polymer 101; incubation 6 h
row,Concentration of the target in the solution measured after different incubation time,SMILES
1,252.6 µg/mL,"CC1(C)CCC(CN2CCN(c3ccc(C(=O)NS(=O)(=O)c4ccc(NCC5CCOCC5)c([N+](=O)[O-])c4)c(Oc4cnc5[nH]ccc5c4)c3)CC2)=C(c2ccc(Cl)cc2)C1 [Venetoclax, venetoclax]"

# Same assay, conditions: binary system with 0.5% polymer 102; incubation 0.5 h
row,Concentration of the target in the solution measured after different incubation time,SMILES
1,151.6 µg/mL,"CC1(C)CCC(CN2CCN(c3ccc(C(=O)NS(=O)(=O)c4ccc(NCC5CCOCC5)c([N+](=O)[O-])c4)c(Oc4cnc5[nH]ccc5c4)c3)CC2)=C(c2ccc(Cl)cc2)C1 [Venetoclax, venetoclax]"

# Same assay, conditions: binary system with 0.5% polymer 102; incubation 3 h
row,Concentration of the target in the solution measured after different incubation time,SMILES
1,254.9 µg/mL,"CC1(C)CCC(CN2CCN(c3ccc(C(=O)NS(=O)(=O)c4ccc(NCC5CCOCC5)c([N+](=O)[O-])c4)c(Oc4cnc5[nH]ccc5c4)c3)CC2)=C(c2ccc(Cl)cc2)C1 [Venetoclax, venetoclax]"

# Same assay, conditions: binary system with 0.5% polymer 102; incubation 6 h
row,Concentration of the target in the solution measured after different incubation time,SMILES
1,272.1 µg/mL,"CC1(C)CCC(CN2CCN(c3ccc(C(=O)NS(=O)(=O)c4ccc(NCC5CCOCC5)c([N+](=O)[O-])c4)c(Oc4cnc5[nH]ccc5c4)c3)CC2)=C(c2ccc(Cl)cc2)C1 [Venetoclax, venetoclax]"

# Same assay, conditions: binary system with 0.5% polymer 103; incubation 0.5 h
row,Concentration of the target in the solution measured after different incubation time,SMILES
1,78.6 µg/mL,"CC1(C)CCC(CN2CCN(c3ccc(C(=O)NS(=O)(=O)c4ccc(NCC5CCOCC5)c([N+](=O)[O-])c4)c(Oc4cnc5[nH]ccc5c4)c3)CC2)=C(c2ccc(Cl)cc2)C1 [Venetoclax, venetoclax]"

# Same assay, conditions: binary system with 0.5% polymer 103; incubation 3 h
row,Concentration of the target in the solution measured after different incubation time,SMILES
1,72.9 µg/mL,"CC1(C)CCC(CN2CCN(c3ccc(C(=O)NS(=O)(=O)c4ccc(NCC5CCOCC5)c([N+](=O)[O-])c4)c(Oc4cnc5[nH]ccc5c4)c3)CC2)=C(c2ccc(Cl)cc2)C1 [Venetoclax, venetoclax]"

# Same assay, conditions: binary system with 0.5% polymer 103; incubation 6 h
row,Concentration of the target in the solution measured after different incubation time,SMILES
1,59.5 µg/mL,"CC1(C)CCC(CN2CCN(c3ccc(C(=O)NS(=O)(=O)c4ccc(NCC5CCOCC5)c([N+](=O)[O-])c4)c(Oc4cnc5[nH]ccc5c4)c3)CC2)=C(c2ccc(Cl)cc2)C1 [Venetoclax, venetoclax]"

# Same assay, conditions: binary system with 0.5% polymer 106; incubation 0.5 h
row,Concentration of the target in the solution measured after different incubation time,SMILES
1,232.2 µg/mL,"CC1(C)CCC(CN2CCN(c3ccc(C(=O)NS(=O)(=O)c4ccc(NCC5CCOCC5)c([N+](=O)[O-])c4)c(Oc4cnc5[nH]ccc5c4)c3)CC2)=C(c2ccc(Cl)cc2)C1 [Venetoclax, venetoclax]"

# Same assay, conditions: binary system with 0.5% polymer 106; incubation 3 h
row,Concentration of the target in the solution measured after different incubation time,SMILES
1,250.5 µg/mL,"CC1(C)CCC(CN2CCN(c3ccc(C(=O)NS(=O)(=O)c4ccc(NCC5CCOCC5)c([N+](=O)[O-])c4)c(Oc4cnc5[nH]ccc5c4)c3)CC2)=C(c2ccc(Cl)cc2)C1 [Venetoclax, venetoclax]"

# Same assay, conditions: binary system with 0.5% polymer 106; incubation 6 h
row,Concentration of the target in the solution measured after different incubation time,SMILES
1,156.8 µg/mL,"CC1(C)CCC(CN2CCN(c3ccc(C(=O)NS(=O)(=O)c4ccc(NCC5CCOCC5)c([N+](=O)[O-])c4)c(Oc4cnc5[nH]ccc5c4)c3)CC2)=C(c2ccc(Cl)cc2)C1 [Venetoclax, venetoclax]"

# Same assay, conditions: binary system with 0.5% polymer 107; incubation 0.5 h
row,Concentration of the target in the solution measured after different incubation time,SMILES
1,152.2 µg/mL,"CC1(C)CCC(CN2CCN(c3ccc(C(=O)NS(=O)(=O)c4ccc(NCC5CCOCC5)c([N+](=O)[O-])c4)c(Oc4cnc5[nH]ccc5c4)c3)CC2)=C(c2ccc(Cl)cc2)C1 [Venetoclax, venetoclax]"

# Same assay, conditions: binary system with 0.5% polymer 107; incubation 3 h
row,Concentration of the target in the solution measured after different incubation time,SMILES
1,153.1 µg/mL,"CC1(C)CCC(CN2CCN(c3ccc(C(=O)NS(=O)(=O)c4ccc(NCC5CCOCC5)c([N+](=O)[O-])c4)c(Oc4cnc5[nH]ccc5c4)c3)CC2)=C(c2ccc(Cl)cc2)C1 [Venetoclax, venetoclax]"

# Same assay, conditions: binary system with 0.5% polymer 107; incubation 6 h
row,Concentration of the target in the solution measured after different incubation time,SMILES
1,156.8 µg/mL,"CC1(C)CCC(CN2CCN(c3ccc(C(=O)NS(=O)(=O)c4ccc(NCC5CCOCC5)c([N+](=O)[O-])c4)c(Oc4cnc5[nH]ccc5c4)c3)CC2)=C(c2ccc(Cl)cc2)C1 [Venetoclax, venetoclax]"

# Same assay, conditions: binary system with 0.5% polymer 110; incubation 0.5 h
row,Concentration of the target in the solution measured after different incubation time,SMILES
1,385.5 µg/mL,"CC1(C)CCC(CN2CCN(c3ccc(C(=O)NS(=O)(=O)c4ccc(NCC5CCOCC5)c([N+](=O)[O-])c4)c(Oc4cnc5[nH]ccc5c4)c3)CC2)=C(c2ccc(Cl)cc2)C1 [Venetoclax, venetoclax]"

# Same assay, conditions: binary system with 0.5% polymer 110; incubation 3 h
row,Concentration of the target in the solution measured after different incubation time,SMILES
1,534.6 µg/mL,"CC1(C)CCC(CN2CCN(c3ccc(C(=O)NS(=O)(=O)c4ccc(NCC5CCOCC5)c([N+](=O)[O-])c4)c(Oc4cnc5[nH]ccc5c4)c3)CC2)=C(c2ccc(Cl)cc2)C1 [Venetoclax, venetoclax]"

# Same assay, conditions: binary system with 0.5% polymer 110; incubation 6 h
row,Concentration of the target in the solution measured after different incubation time,SMILES
1,566.2 µg/mL,"CC1(C)CCC(CN2CCN(c3ccc(C(=O)NS(=O)(=O)c4ccc(NCC5CCOCC5)c([N+](=O)[O-])c4)c(Oc4cnc5[nH]ccc5c4)c3)CC2)=C(c2ccc(Cl)cc2)C1 [Venetoclax, venetoclax]"

# Experiment: not given
# Conditions: cited from earlier work
row,SMILES,LogD7.4 or Log P
1,"CC1(C)CCC(CN2CCN(c3ccc(C(=O)NS(=O)(=O)c4ccc(NCC5CCOCC5)c([N+](=O)[O-])c4)c(Oc4cnc5[nH]ccc5c4)c3)CC2)=C(c2ccc(Cl)cc2)C1 [Venetoclax, venetoclax]",6.88

# Experiment: Guest molecule concentration after incubation in initial medium without polymer (Comparative Example 1)
# Format: physicochemical
# Conditions: 0.5 h; 37° C.; pH 6.8 phosphate buffer
# Procedure: pH 2.0 hydrochloric acid, pH 4.5 acetate, and pH 6.5, pH 6.8, or pH 7.4 phosphate buffer solutions were prepared. The selection of each initial medium followed the principle that the solubility in the initial medium of the selected targets (or active ingredients) should low enough, but should meet the detection sensitivity and accuracy requirements of the corresponding analytical methods. Each buffer as initial media was placed in a 50 ml test tube with a stopper, shaken in a constant temperature air shaker at 37° C.±0.5° C., with an amplitude of 200 rpm, and incubated for 1 hour. […] Samples were taken at 0.5 h, 3 h and 6 h after incubation, centrifuged at 37° C., 13000 rpm for 5 minutes, and the supernatant was diluted at least 10 times with the mobile phase under the target analyte analytical method, filtered, the initial filtrate was discarded, and the continued filtrate was used as the test solution for injection analysis. The corresponding HPLC method under each target object item in Table 8 was used to determine the content of each target substance. When the solubility of the target in the initial medium is below the quantitative limit of the analytical method, a small amount of surfactant, such as sodium dodecyl sulfate (SDS), Tween20, or Tween80, can be added appropriately.
# The above targets were incubated at 37° C.±0.5° C. for different time in an initial medium without any polymer. Each solid target formed by molecular stacking was removed by centrifugation, and the supernatant was analyzed using the HPLC method under each target item (see Table 8). The theoretical addition concentration of each target when its supramolecular self-assembly system was built was determined by its maximum dose in clinical use.
row,Concentration of guest molecule measured after different incubated time,SMILES
1,19.8 µg/mL,"CC1(C)CCC(CN2CCN(c3ccc(C(=O)NS(=O)(=O)c4ccc(NCC5CCOCC5)c([N+](=O)[O-])c4)c(Oc4cnc5[nH]ccc5c4)c3)CC2)=C(c2ccc(Cl)cc2)C1 [Venetoclax, venetoclax]"

# Same assay, conditions: 3 h; 37° C.; pH 6.8 phosphate buffer
row,Concentration of guest molecule measured after different incubated time,SMILES
1,12.4 µg/mL,"CC1(C)CCC(CN2CCN(c3ccc(C(=O)NS(=O)(=O)c4ccc(NCC5CCOCC5)c([N+](=O)[O-])c4)c(Oc4cnc5[nH]ccc5c4)c3)CC2)=C(c2ccc(Cl)cc2)C1 [Venetoclax, venetoclax]"

# Same assay, conditions: 6 h; 37° C.; pH 6.8 phosphate buffer
row,Concentration of guest molecule measured after different incubated time,SMILES
1,9.6 µg/mL,"CC1(C)CCC(CN2CCN(c3ccc(C(=O)NS(=O)(=O)c4ccc(NCC5CCOCC5)c([N+](=O)[O-])c4)c(Oc4cnc5[nH]ccc5c4)c3)CC2)=C(c2ccc(Cl)cc2)C1 [Venetoclax, venetoclax]"
